# Columns and labels:
# [1] = tested on: panel of five tumor cell lines (HD-MB03, RPMI-8402, SU-DHL-8, A549, MDA-MB-231); test: Antiproliferative activity, range over the panel of five tumor cell lines; type: cell-based; conditions: Homo sapiens; range over the active cell lines of the five-line panel; 72 h
# Description: The synthesized quinoline derivatives 4a–z and 4aa–ah were evaluated in vitro for their antiproliferative activity against a panel of five tumor cell lines (HD‐MB03, medulloblastoma; RPMI‐8402, T‐lymphoblastic leukemia; SU‐DHL‐8, B lymphocyte, large cell lymphoma; A549, non‐small cell lung cancer; MDA‐MB‐231, triple‐negative breast cancer) (Table 2). […] Replacing the 4‐Cl group with a trifluoromethyl group (4ac) reduced antiproliferative activity.
# To test the newly synthesized compounds, various human cell lines were employed. HD‐MB03 cells were purchased from DSMZ (Braunschweig, Germany), while A549, MDA‐MB‐231, RPMI‐8420, SU‐DHL‐8, TOLEDO, VL51, SU‐DHL‐1, SU‐DHL‐18, and KM‐H2 were obtained from ATCC (Manassas, VA, USA). Cells were cultured in DMEM (for MDA‐MB‐231 and A549) or RPMI‐1640 (for RPMI‐8420, SU‐DHL‐8, TOLEDO, VL51, SU‐DHL‐1, SU‐DHL‐18, KM‐H2, and HD‐MB03) media (Gibco, Milan, Italy). Both media were supplemented with 115 units/mL penicillin G (Gibco, Milan, Italy), 115 µg/mL streptomycin (Invitrogen, Milan, Italy), and 10% fetal bovine serum (Invitrogen, Milan, Italy). Peripheral blood mononuclear cells (PBMCs) were isolated from healthy donors as previously described. For cytotoxicity assays, PBMCs were resuspended at 5 × 10⁵ cells/mL in complete RPMI medium with or without 2.5 µg/mL phytohemagglutinin (PHA) (Irvine Scientific) to stimulate T‐cell activation and proliferation. All cell lines were maintained at 37°C in a humidified atmosphere containing 5% CO₂. All compounds were dissolved in DMSO at a 10 mM stock concentration. For dose–response assays, cells were seeded in 96‐well plates at densities optimized for each cell line: HD‐MB03 at 10,000 cells/well, A549 at 4000 cells/well, and MDA‐MB‐231 at 7000 cells/well. All other cell lines were seeded at 20,000 cells/well in a final volume of 100 µL per well. After 24 h, cells were treated with a 6‐point serial dilution of compounds starting from 10 µM, in triplicate for statistical analysis. Seventy‐2 h posttreatment, 10 µL of resazurin solution (100 µg/mL) was added to each well, and cells were incubated for an additional 3–6 h. Fluorescence was measured using a Spark 10 M microplate reader (Tecan Group Ltd., Männedorf, Switzerland) with excitation at 535 nm and emission at 600 nm. The IC₅₀ was defined as the concentration of compound required to inhibit cell proliferation by 50% compared to cells treated with the highest DMSO concentration.
# VL51 [2] = test: Cell-cycle analysis (flow cytometry); type: cell-based, human; conditions: 2 µM, 48 h
# Description: Cells were plated in 12‐well plates at 0.2 × 10⁶ cells/mL in 1 mL of complete medium. After 24 h, cells were treated with the specified compound concentrations. Following an additional 24 h, cells were harvested, centrifuged, and fixed in 70% ice‐cold ethanol. Cells were then stained and processed as previously described. Data acquisition was performed using a Coulter Cytomics FC500 flow cytometer (Beckman Coulter).
# TOLEDO [3] = test: EdU incorporation assay (DNA synthesis); type: cell-based, human; conditions: 1 and 2 µM, 48 h
# Description: (§1) For evaluation of DNA synthesis, cells were plated in 12‐well plates at 0.2 × 10⁶ cells/mL in 1 mL of complete medium. After 24 h, cells were treated with the indicated compound concentrations. EdU (5‐ethynyl‐2‐deoxyuridine) incorporation was performed according to the Baseclick EdU Flow Cytometry Kit instructions (Sigma Aldrich, St. Louis, MO, USA) as previously described. EdU‐FITC incorporation was detected using a CytoFLEX flow cytometer (Beckman Coulter, Brea, CA, USA) and analyzed with FlowJo software v.10.7.1 (BD Biosciences).
# VL51 [4] = test: EdU incorporation assay (DNA synthesis); type: cell-based, human; conditions: 1 and 2 µM, 48 h
# Description: as §1
# VL51 [5] = test: Apoptosis assay, Annexin V/PI staining; type: cell-based, human; conditions: 2 µM, 48 h
# Description: For apoptosis evaluation, cells were plated in 12‐well plates at 0.2 × 10⁶ cells/mL in 1 mL of complete medium. After 24 h, cells were treated with the indicated compound concentrations. After 48 h, cells were harvested, centrifuged, and stained with Annexin V‐FITC and propidium iodide (PI) using the Annexin‐V Fluos kit (Roche Diagnostics), following the manufacturer's instructions. Fluorescence was analyzed using a Coulter Cytomics FC500 flow cytometer (Beckman Coulter) with detection in the FL1 and FL3 channels, respectively.
# TOLEDO [6] = test: Mitochondrial membrane potential analysis (TMRE); type: cell-based, human; conditions: 24 h of treatment
# Description: (§2) Cells were plated in 12‐well plates at 0.2 × 10⁶ cells/mL in 1 mL of complete medium. After 24 h, cells were treated with the indicated compound concentrations. Following a further 24‐h incubation, cells were stained with TMRE (Invitrogen, US) at 1 µM for 20 min. After washing with 1X PBS, fluorescence was detected using a CytoFLEX flow cytometer (Beckman Coulter) and analyzed with FlowJo software v.10.7.1.
# VL51 [7] = test: Mitochondrial membrane potential analysis (TMRE); type: cell-based, human; conditions: 24 h of treatment
# Description: as §2
# TOLEDO [8] = test: Mitochondrial ROS detection (MitoSOX); type: cell-based, human; conditions: 24 h of treatment
# Description: as §2, with “a” for “a further”, “treatment,” for “incubation,”, “0.5 µM MitoSOX” for “TMRE”, “US)” for “US) at 1 µM”, “with” for “with 1X”, “measured” for “detected”
# VL51 [9] = test: Mitochondrial ROS detection (MitoSOX); type: cell-based, human; conditions: 24 h of treatment
# Description: as §2, with “a” for “a further”, “treatment,” for “incubation,”, “0.5 µM MitoSOX” for “TMRE”, “US)” for “US) at 1 µM”, “with” for “with 1X”, “measured” for “detected”
Structure (SMILES),IC50 [1] [µM],Cell-cycle distribution (VL51 [2]),DNA synthesis (EdU incorporation) (TOLEDO [3]),DNA synthesis (EdU incorporation) (VL51 [4]),Mode of cell death (Annexin V/PI) (VL51 [5]),Mitochondrial membrane depolarization (TMRE-negative cells) (TOLEDO [6]),Mitochondrial membrane depolarization (TMRE-negative cells) (VL51 [7]),Mitochondrial ROS (MitoSOX-positive cells) (TOLEDO [8]),Mitochondrial ROS (MitoSOX-positive cells) (VL51 [9])
"O=C(Nc1ccc(Cl)cc1)c1cc(/C=C/c2ccccc2[N+](=O)[O-])nc2ccccc12 [4ah, (E)-N-(4-chlorophenyl)-2-(2-nitrostyryl)quinoline-4-carboxamide]",1.33 to 6.92,,,,,,,,
"O=C(Nc1ccc([N+](=O)[O-])cc1)c1cc(/C=C/c2ccccc2)nc2ccccc12 [4i, (E)-N-(4-nitrophenyl)-2-styrylquinoline-4-carboxamide]",,significant accumulation of cells in the G₂/M phase,"marked, dose‐dependent reduction in DNA synthesis","marked, dose‐dependent reduction in DNA synthesis",induced late apoptosis and necrosis,increased percentage of TMRE‐negative cells,increased percentage of TMRE‐negative cells,marked dose‐dependent increase of mitochondrial ROS,marked dose‐dependent increase of mitochondrial ROS

# Reference: publication PMC12645083, “Microwave‐Enhanced Synthesis of 2‐Styrylquinoline‐4‐Carboxamides With Promising Anti‐Lymphoma Activity” (Archiv Der Pharmazie, 2025)
